Experimental data published in patent US20110257208A1, “COMPOUNDS USEFUL AS FAAH MODULATORS AND USES THEREOF” (priority 2008, published 2011).

Target: T1, hFAAH (Homo sapiens, UniProt O00519)
T1 construct: expressed in transfected cells; host or cells: HEK293-TRex (Invitrogen) stably transfected with hFAAH in the pcDNA5-Tet-off vector, or T84 human colon epithelial cells (endogenous hFAAH); used as a microsomal preparation
T1 sequence (O00519 1-579): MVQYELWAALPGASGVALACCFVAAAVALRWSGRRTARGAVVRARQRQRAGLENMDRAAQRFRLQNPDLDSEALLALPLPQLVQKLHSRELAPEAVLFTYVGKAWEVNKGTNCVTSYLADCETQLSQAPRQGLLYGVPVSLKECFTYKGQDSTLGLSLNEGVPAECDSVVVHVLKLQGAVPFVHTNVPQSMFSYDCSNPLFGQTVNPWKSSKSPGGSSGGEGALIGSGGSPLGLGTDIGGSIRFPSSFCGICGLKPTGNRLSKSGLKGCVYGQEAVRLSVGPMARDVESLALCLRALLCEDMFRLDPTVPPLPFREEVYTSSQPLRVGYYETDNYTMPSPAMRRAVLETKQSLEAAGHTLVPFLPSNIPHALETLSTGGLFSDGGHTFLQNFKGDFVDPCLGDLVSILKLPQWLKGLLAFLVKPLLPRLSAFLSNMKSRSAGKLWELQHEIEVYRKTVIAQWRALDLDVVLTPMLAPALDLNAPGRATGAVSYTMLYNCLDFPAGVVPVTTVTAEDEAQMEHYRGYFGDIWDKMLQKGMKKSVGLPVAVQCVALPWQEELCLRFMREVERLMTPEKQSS
Assay: Fluorimetric assay with hFAAH microsomes (enzymatic, fluorescence based)
Type: biochemical
Details: compound at 1 uM, AA-AMC substrate
Method: Human cell line T84 (human colon epithelial cells), which expresses endogenous hFAAH, or HEK293-TRex cells (Invitrogen) stably transfected with hFAAH in the pcDNA5-Tet-off vector are cultured in medium containing DMEM, 10% FBS penicillin/streptomycin, glutamax, 200 μg/ml hygromycin and 0.5 μg/ml blasticidin. Cell collection is done 24 h after induction with doxycycline by first washing the cells with cold PBS and then incubating them with Versene before centrifugation. Cell pellets are then stored at −80° C. until needed. For homogenization, the cell pellets are thawed on ice […] and resuspended in homogenization buffer (50 mM HEPES (pH 7.4), 1 mM EDTA, 1 μM Pepstatin A, 100 μM Leupeptin, 0.1 mg/mL aprotinin). Cell suspensions are then homogenized on ice using the Polytron 1200 C at setting 6 for three 30-second intervals with 30-second rests. The suspension is centrifuged at 1000 g for 10 minutes at 4° C. and the supernatant is collected and further centrifuged at 24000 rpm for 30 minutes at 4° C. using an ultracentrifuge. Pellets are resuspended by adding in cold microsomal buffer (50 mM HEPES (pH 7.4) and 1 mM EDTA) and sheared through a 23-gauge needle five times, keeping the suspension on ice. Protein concentrations are determined using the BCA assay and aliquoted preparations are stored at −80° C. until needed.
Compound potency against hFAAH is determined using an enzymatic assay with a fluorescence readout. Briefly, experiments were carried out in a 96-well plate format (Corning Costar, # 3370) with a total well volume of 160 μL with components added in the following order: assay buffer (50 mM HEPES (pH 7.4), 1 mM EDTA, 1.4 mg/mL BSA), compound solutions (7 different concentrations per compound in duplicate), microsomal enzyme preparation (10 μg per well) and substrate [AA-AMC (arachadonyl 7-amino 4-methyl coumarin amide), 2 μM]. After a brief shaking, a kinetic read of the plate is obtained using a Tecan Safire II in kinetic mode for 275 cycles with excitation and emission wavelengths of 355 and 460 nm, respectively. Raw data is then processed and analyzed using Assay Explorer and GraphPad Prism.
The following compounds have been or can be prepared according to the methods of the invention. An enzymatic (fluorescence based) assay is performed as described above. In Table 1, activity of each compound is expressed as follows: • ++++ % Inhibition >75% • +++ % Inhibition >50% • ++ % Inhibition >25% • + % Inhibition <25%

| Structure (SMILES) | inhibition at 1 µM |
| --- | --- |
| Cc1nc(C(F)(F)F)ccc1CN1Cc2ncnc(Nc3cnc4ccccc4c3)c2C1 [Compound 74, [6-(2-Methyl-6-trifluoromethyl-pyridin-3-ylmethyl)-6,7-dihydro-5H-pyrrolo[3,4-d]pyrimidin-4-yl]-quinolin-3-yl-amine] | > 25% |
| CCCC(C)N1Cc2ncnc(Nc3cnc4ccccc4c3)c2C1 (stereo not shown) [Compound 42, [6-(1-Methyl-butyl)-6,7-dihydro-5H-pyrrolo[3,4-d]pyrimidin-4-yl]-quinolin-3-yl-amine] | > 25% |
| Cc1nc(C)c(CNC(=O)N2Cc3ncnc(Nc4cnc5ccccc5c4)c3C2)s1 [Compound 48, 4-(Quinolin-3-ylamino)-5,7-dihydro-pyrrolo[3,4-d]pyrimidine-6-carboxylic acid (2,4-dimethyl-thiazol-5-ylmethyl)-amide] | < 25% |
| O=S(=O)(c1ccccc1OC(F)(F)F)N1Cc2ncnc(Nc3cnc4ccccc4c3)c2C1 [Compound 70, Quinolin-3-yl-[6-(2-trifluoromethoxy-benzenesulfonyl)-6,7-dihydro-5H-pyrrolo[3,4-d]pyrimidin-4-yl]-amine] | > 25% |
| CC(C)Oc1ccccc1CN1Cc2ncnc(Nc3cnc4ccccc4c3)c2C1 [Compound 109, [6-(2-Isopropoxy-benzyl)-6,7-dihydro-5H-pyrrolo[3,4-d]pyrimidin-4-yl]-quinolin-3-yl-amine] | > 50% |
| Cc1ncsc1CN1Cc2ncnc(Nc3cnc4ccccc4c3)c2C1 [Compound 66, [6-(4-Methyl-thiazol-5-ylmethyl)-6,7-dihydro-5H-pyrrolo[3,4-d]pyrimidin-4-yl]-quinolin-3-yl-amine] | > 75% |
| c1ccc2ncc(Nc3ncnc4c3CN(C3CCCCC3)C4)cc2c1 [Compound 23, (6-Cyclohexyl-6,7-dihydro-5H-pyrrolo[3,4-d]pyrimidin-4-yl)-quinolin-3-yl-amine] | > 25% |
| CC(C)(C)CN1Cc2ncnc(Nc3cnc4ccccc4c3)c2C1 [Compound 11, [6-(2,2-Dimethyl-propyl)-6,7-dihydro-5H-pyrrolo[3,4-d]pyrimidin-4-yl]-quinolin-3-yl-amine] | > 25% |
| Cc1ccccc1S(=O)(=O)N1Cc2ncnc(Nc3cnc4ccccc4c3)c2C1 [Compound 59, Quinolin-3-yl-[6-(toluene-2-sulfonyl)-6,7-dihydro-5H-pyrrolo[3,4-d]pyrimidin-4-yl]-amine] | > 75% |
| c1ccc2ncc(Nc3ncnc4c3CN(CC3CCOCC3)C4)cc2c1 [Compound 33, Quinolin-3-yl-[6-(tetrahydro-pyran-4-ylmethyl)-6,7-dihydro-5H-pyrrolo[3,4-d]pyrimidin-4-yl]-amine] | > 75% |
| Cc1ncccc1CN1Cc2ncnc(Nc3cnc4ccccc4c3)c2C1 [Compound 17, [6-(2-Methyl-pyridin-3-ylmethyl)-6,7-dihydro-5H-pyrrolo[3,4-d]pyrimidin-4-yl]-quinolin-3-yl-amine] | > 75% |
| O=S(=O)(C1CCCC1)N1Cc2ncnc(Nc3cnc4ccccc4c3)c2C1 [Compound 57, (6-Cyclopentanesulfonyl-6,7-dihydro-5H-pyrrolo[3,4-d]pyrimidin-4-yl)-quinolin-3-yl-amine] | > 25% |
| c1ccc2ncc(Nc3ncnc4c3CN(C3CCCC3)C4)cc2c1 [Compound 41, (6-Cyclopentyl-6,7-dihydro-5H-pyrrolo[3,4-d]pyrimidin-4-yl)-quinolin-3-yl-amine] | > 50% |
| FC(F)(F)Oc1ccccc1CN1Cc2ncnc(Nc3cnc4ccccc4c3)c2C1 [Compound 98, Quinolin-3-yl-[6-(2-trifluoromethoxy-benzyl)-6,7-dihydro-5H-pyrrolo[3,4-d]pyrimidin-4-yl]-amine] | > 75% |
| Cc1nc(CN2Cc3ncnc(Nc4cnc5ccccc5c4)c3C2)cs1 [Compound 25, [6-(2-Methyl-thiazol-4-ylmethyl)-6,7-dihydro-5H-pyrrolo[3,4-d]pyrimidin-4-yl]-quinolin-3-yl-amine] | < 25% |
| c1ccc2ncc(Nc3ncnc4c3CN(Cc3cncs3)C4)cc2c1 [Compound 81, Quinolin-3-yl-(6-thiazol-5-ylmethyl-6,7-dihydro-5H-pyrrolo[3,4-d]pyrimidin-4-yl)-amine] | > 25% |
| c1ccc2ncc(Nc3ncnc4c3CN(Cc3cccc5cc[nH]c35)C4)cc2c1 [Compound 110, [6-(1H-Indol-7-ylmethyl)-6,7-dihydro-5H-pyrrolo[3,4-d]pyrimidin-4-yl]-quinolin-3-yl-amine] | > 75% |
| Cc1nc(C)c(NC(=O)N2Cc3ncnc(Nc4cnc5ccccc5c4)c3C2)s1 [Compound 51, 4-(Quinolin-3-ylamino)-5,7-dihydro-pyrrolo[3,4-d]pyrimidine-6-carboxylic acid (2,4-dimethyl-thiazol-5-yl)-amide] | < 25% |
| Cc1ccc(CN2Cc3ncnc(Nc4cnc5ccccc5c4)c3C2)c(C)c1 [Compound 93, [6-(2,4-Dimethyl-benzyl)-6,7-dihydro-5H-pyrrolo[3,4-d]pyrimidin-4-yl]-quinolin-3-yl-amine] | > 25% |
| Cc1nc(C)c(S(=O)(=O)N2Cc3ncnc(Nc4cnc5ccccc5c4)c3C2)s1 [Compound 61, [6-(2,4-Dimethyl-thiazole-5-sulfonyl)-6,7-dihydro-5H-pyrrolo[3,4-d]pyrimidin-4-yl]-quinolin-3-yl-amine] | > 50% |
| CC(C)C(C)N1Cc2ncnc(Nc3cnc4ccccc4c3)c2C1 (stereo not shown) [Compound 32, [6-(1,2-Dimethyl-propyl)-6,7-dihydro-5H-pyrrolo[3,4-d]pyrimidin-4-yl]-quinolin-3-yl-amine] | > 25% |
| c1ccc2ncc(Nc3ncnc4c3CN(CC3CCSCC3)C4)cc2c1 [Compound 18, Quinolin-3-yl-[6-(tetrahydro-thiopyran-4-ylmethyl)-6,7-dihydro-5H-pyrrolo[3,4-d]pyrimidin-4-yl]-amine] | > 75% |
| CC(C1CCC1)N1Cc2ncnc(Nc3cnc4ccccc4c3)c2C1 (stereo not shown) [Compound 36, [6-(1-Cyclobutyl-ethyl)-6,7-dihydro-5H-pyrrolo[3,4-d]pyrimidin-4-yl]-quinolin-3-yl-amine] | > 25% |
| CCc1ccccc1CN1Cc2ncnc(Nc3cnc4ccccc4c3)c2C1 [Compound 90, [6-(2-Ethyl-benzyl)-6,7-dihydro-5H-pyrrolo[3,4-d]pyrimidin-4-yl]-quinolin-3-yl-amine] | > 75% |
| Cc1cccnc1CN1Cc2ncnc(Nc3cnc4ccccc4c3)c2C1 [Compound 79, [6-(3-Methyl-pyridin-2-ylmethyl)-6,7-dihydro-5H-pyrrolo[3,4-d]pyrimidin-4-yl]-quinolin-3-yl-amine] | < 25% |
| c1ccc2ncc(Nc3ncnc4c3CN(C3CCCCCC3)C4)cc2c1 [Compound 40, (6-Cycloheptyl-6,7-dihydro-5H-pyrrolo[3,4-d]pyrimidin-4-yl)-quinolin-3-yl-amine] | > 25% |
| O=S(=O)(C1CCCCC1)N1Cc2ncnc(Nc3cnc4ccccc4c3)c2C1 [Compound 64, (6-Cyclohexanesulfonyl-6,7-dihydro-5H-pyrrolo[3,4-d]pyrimidin-4-yl)-quinolin-3-yl-amine] | > 50% |
| O=S(=O)(CCc1ccccc1)N1Cc2ncnc(Nc3cnc4ccccc4c3)c2C1 [Compound 82, [6-(2-Phenyl-ethanesulfonyl)-6,7-dihydro-5H-pyrrolo[3,4-d]pyrimidin-4-yl]-quinolin-3-yl-amine] | < 25% |
